Reference: patent US9493446B2, “Orexin receptor antagonists which are [ortho bi-(hetero-)aryl]-[2-(meta bi-(hetero-)aryl)-pyrrolidin-1-yl]-methanone derivatives” (Actelion Pharmaceuticals Ltd, priority 2012, dated 2016)

Key:
[1] = molecular target: human orexin-2 receptor (Homo sapiens (Human), UniProt O43614); assay: Intracellular calcium measurement (FLIPR), CHO cells expressing human orexin-2 receptor, 3 nM orexin-A; format: cell-based; settings: CHO cells expressing human orexin-2 receptor, FLIPR, 3 nM orexin-A; geometric mean if determined several times; read-out: IC50 OX2
Summary of the method: (§1)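 CHO cells stably expressing each receptor were loaded with 3 μM fluo-4 AM plus 5 mM probenecid for 50 min at 37 °C, then equilibrated 30 min at rt.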

[2] = molecular target: orexin-1 (Homo sapiens (Human), UniProt O43613); assay: Intracellular calcium measurement (FLIPR), CHO cells expressing human orexin-1 receptor, 3 nM orexin-A; format: cell-based; settings: CHO cells expressing human orexin-1 receptor, FLIPR, 3 nM orexin-A; geometric mean if determined several times; read-out: IC50 OX1
Summary of the method: as §1

human orexin-2 receptor, sequence (O43614 whole entry): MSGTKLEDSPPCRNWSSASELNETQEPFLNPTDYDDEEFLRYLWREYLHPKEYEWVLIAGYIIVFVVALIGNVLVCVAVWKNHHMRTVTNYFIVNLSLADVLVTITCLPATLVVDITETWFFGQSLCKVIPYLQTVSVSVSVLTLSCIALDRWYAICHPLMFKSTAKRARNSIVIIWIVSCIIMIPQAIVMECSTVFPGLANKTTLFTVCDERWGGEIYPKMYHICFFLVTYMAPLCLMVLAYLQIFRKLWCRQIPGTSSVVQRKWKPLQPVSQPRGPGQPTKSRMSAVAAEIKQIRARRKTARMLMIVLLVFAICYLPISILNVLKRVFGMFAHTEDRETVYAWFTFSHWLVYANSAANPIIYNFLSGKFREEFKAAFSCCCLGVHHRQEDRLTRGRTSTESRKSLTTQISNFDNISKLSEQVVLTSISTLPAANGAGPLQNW
orexin-1, sequence (O43613 whole entry): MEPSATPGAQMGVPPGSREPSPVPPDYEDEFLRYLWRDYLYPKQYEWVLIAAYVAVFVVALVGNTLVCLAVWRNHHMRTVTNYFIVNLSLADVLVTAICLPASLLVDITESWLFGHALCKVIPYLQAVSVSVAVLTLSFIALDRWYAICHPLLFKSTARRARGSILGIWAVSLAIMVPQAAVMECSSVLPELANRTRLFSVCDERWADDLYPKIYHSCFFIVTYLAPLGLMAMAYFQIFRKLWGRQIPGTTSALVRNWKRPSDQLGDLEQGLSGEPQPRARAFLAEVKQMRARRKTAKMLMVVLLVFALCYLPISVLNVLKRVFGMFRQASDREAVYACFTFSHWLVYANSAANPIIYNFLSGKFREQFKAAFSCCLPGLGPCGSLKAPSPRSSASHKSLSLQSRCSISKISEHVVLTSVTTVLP

Structure (SMILES) | IC50 [1] | IC50 [2]
Cc1ccc(-n2nccn2)c(C(=O)N2CCC[C@H]2c2nc(-c3c(C)cccc3F)no2)c1 [compound 76, {(S)-2-[3-(2-Fluoro-6-methyl-phenyl)-[1,2,4]oxadiazol-5-yl]-pyrrolidin-1-yl}-(5-methyl-2-[1,2,3]triazol-2-yl-phenyl)-methanone] | 40 nM | 901 nM
Cc1ccc(-n2nccn2)c(C(=O)N2CCC[C@H]2c2nc(-c3cccc4ccn(C)c34)no2)c1 [compound 77, {(S)-2-[3-(1-Methyl-1H-indol-7-yl)-[1,2,4]oxadiazol-5-yl]-pyrrolidin-1-yl}-(5-methyl-2-[1,2,3]triazol-2-yl-phenyl)-methanone] | 8 nM | 52 nM
Cc1ccc(-n2nccn2)c(C(=O)N2CCC[C@H]2c2nc(-c3cccnc3C)no2)c1 [compound 78, {(S)-2-[3-(2-Methyl-pyridin-3-yl)-[1,2,4]oxadiazol-5-yl]-pyrrolidin-1-yl}-(5-methyl-2-[1,2,3]triazol-2-yl-phenyl)-methanone] | 29 nM | 2290 nM
Cc1ccc(-n2nccn2)c(C(=O)N2CCC[C@H]2c2nc(-c3c[nH]c4cccc(C)c34)no2)c1 [compound 79, {(S)-2-[3-(4-Methyl-1H-indol-3-yl)-[1,2,4]oxadiazol-5-yl]-pyrrolidin-1-yl}-(5-methyl-2-[1,2,3]triazol-2-yl-phenyl)-methanone] | 1070 nM | 2750 nM
Cc1ccc(-n2nccn2)c(C(=O)N2CCC[C@H]2c2nc(-c3ccc(C)c(C)c3)no2)c1 [compound 80, {(S)-2-[3-(3,4-Dimethyl-phenyl)-[1,2,4]oxadiazol-5-yl]-pyrrolidin-1-yl}-(5-methyl-2-[1,2,3]triazol-2-yl-phenyl)-methanone] | 16 nM | 252 nM
Cc1ccc(-c2noc([C@@H]3CCCN3C(=O)c3cc(C)ccc3-n3nccn3)n2)c(C)c1 [compound 81, {(S)-2-[3-(2,4-Dimethyl-phenyl)-[1,2,4]oxadiazol-5-yl]-pyrrolidin-1-yl}-(5-methyl-2-[1,2,3]triazol-2-yl-phenyl)-methanone] | 19 nM | 309 nM
COc1ccc(-c2noc([C@@H]3CCCN3C(=O)c3cc(C)ccc3-n3nccn3)n2)cc1OC [compound 82, {(S)-2-[3-(3,4-Dimethoxy-phenyl)-[1,2,4]oxadiazol-5-yl]-pyrrolidin-1-yl}-(5-methyl-2-[1,2,3]triazol-2-yl-phenyl)-methanone] | 131 nM | 874 nM
Cc1ccc(-n2nccn2)c(C(=O)N2CCC[C@H]2c2nc(-c3ncccc3C)no2)c1 [compound 83, {(S)-2-[3-(3-Methyl-pyridin-2-yl)-[1,2,4]oxadiazol-5-yl]-pyrrolidin-1-yl}-(5-methyl-2-[1,2,3]triazol-2-yl-phenyl)-methanone] | 302 nM | 3470 nM
Cc1ccc(-n2nccn2)c(C(=O)N2CCC[C@H]2c2nc(-c3cc(C)ccc3C)no2)c1 [compound 84, {(S)-2-[3-(2,5-Dimethyl-phenyl)-[1,2,4]oxadiazol-5-yl]-pyrrolidin-1-yl}-(5-methyl-2-[1,2,3]triazol-2-yl-phenyl)-methanone] | 8 nM | 63 nM
Cc1ccc(-c2ccccc2)c(C(=O)N2CCC[C@H]2c2nc(-c3cccc(Cl)c3C)no2)c1 [compound 88] | 11 nM | 49 nM
Cc1ccc(-n2cccn2)c(C(=O)N2CCC[C@H]2c2nc(-c3cccc(Cl)c3C)no2)c1 [compound 89] | 14 nM | 97 nM
Cc1ccc(-c2ccccn2)c(C(=O)N2CCC[C@H]2c2nc(-c3cccc(Cl)c3C)no2)c1 [compound 90] | 25 nM | 137 nM
Cc1cccc(-c2oc(C)nc2C(=O)N2CCC[C@H]2c2nc(-c3cccc(Cl)c3C)no2)c1 [compound 91] | 91 nM | 104 nM
Cc1cccc(-c2ocnc2C(=O)N2CCC[C@H]2c2nc(-c3cccc(Cl)c3C)no2)c1 [compound 92] | 53 nM | 120 nM
Cc1c(Cl)cccc1-c1noc([C@@H]2CCCN2C(=O)c2ccccc2-n2nccn2)n1 [compound 93] | 28 nM | 399 nM
